Test results published in patent publication EP2823816A1, “Inhibitors of Neuropilin and use thereof for the treatment of Neuropilin-related diseases” (Tragex Pharma, priority 2013, dated 2015).

Legend:
[1] = system: MDA-MB-231 + shRNA directed to NRP2; experiment: Proliferation assay in shRNA-transfected cells; assay type: cell-based; conditions: Homo sapiens; inhibition of proliferation; clone MDA-MB-231 + shRNA directed to NRP2
Excerpt: (§1) The cell proliferation WST-1 assay is a colorimetric assay for the quantification of cell proliferation and viability, based on the enzymatic cleavage of the tetrazolium salt WST-1 added to the culture medium, to a water soluble colored formazan dye, detected by absorbance at 450 nm, by mitochondrial succinate-tetrazoliumreductase in viable cells. An augmentation in enzyme activity will then lead to an increase in the amount of formazan dye formed, which directly correlates to the number of metabolically active cells in the culture.
(§2) After an incubation period of 72 h, at day 4, were prepared the 19 mL medium with reagent WST-1 1mL ([…]). The medium was removed from the 96 microplate and 200 µL of solution WST-1/medium were added for each well. The cells were incubated at 37°C in a humidified atmosphere of 5% CO2 for 1h30 and the absorbance at 450-655 nm was measured by Microplate Manager 5.2 (Bio-Rad).
(§3) The effect of compound 1 of the invention on cell proliferation was tested according to the proliferation assay hereinabove described, in MDA-MB-231 cancer cells transfected with shRNA directed to NRP1 or NRP2 or with control shRNA.

[2] = system: MDA-MB-231 + shRNA directed to NRP1; experiment: Proliferation assay in shRNA-transfected cells; assay type: cell-based; conditions: Homo sapiens; inhibition of proliferation; clone MDA-MB-231 + shRNA directed to NRP1
Excerpt: as §1, §2, §3

[3] = system: MDA-MB-231 + control shRNA; experiment: Proliferation assay in shRNA-transfected cells; assay type: cell-based; conditions: Homo sapiens; inhibition of proliferation; clone MDA-MB-231 + control shRNA
Excerpt: as §1, §2, §3

[4] = biological target: T1, VEGF-R1 (Homo sapiens, UniProt P17948); experiment: ELISA, inhibition of VEGF binding to coated receptor; conditions: VEGF-A165b / VEGF-R1; compound at 10 µM; read-out: Percent of binding inhibition (± SD)
T1 construct: purchased R&D Systems, UK 321-FL-050/CF
T1 sequence (P17948 with tags, fused parts or gaps limits assumed): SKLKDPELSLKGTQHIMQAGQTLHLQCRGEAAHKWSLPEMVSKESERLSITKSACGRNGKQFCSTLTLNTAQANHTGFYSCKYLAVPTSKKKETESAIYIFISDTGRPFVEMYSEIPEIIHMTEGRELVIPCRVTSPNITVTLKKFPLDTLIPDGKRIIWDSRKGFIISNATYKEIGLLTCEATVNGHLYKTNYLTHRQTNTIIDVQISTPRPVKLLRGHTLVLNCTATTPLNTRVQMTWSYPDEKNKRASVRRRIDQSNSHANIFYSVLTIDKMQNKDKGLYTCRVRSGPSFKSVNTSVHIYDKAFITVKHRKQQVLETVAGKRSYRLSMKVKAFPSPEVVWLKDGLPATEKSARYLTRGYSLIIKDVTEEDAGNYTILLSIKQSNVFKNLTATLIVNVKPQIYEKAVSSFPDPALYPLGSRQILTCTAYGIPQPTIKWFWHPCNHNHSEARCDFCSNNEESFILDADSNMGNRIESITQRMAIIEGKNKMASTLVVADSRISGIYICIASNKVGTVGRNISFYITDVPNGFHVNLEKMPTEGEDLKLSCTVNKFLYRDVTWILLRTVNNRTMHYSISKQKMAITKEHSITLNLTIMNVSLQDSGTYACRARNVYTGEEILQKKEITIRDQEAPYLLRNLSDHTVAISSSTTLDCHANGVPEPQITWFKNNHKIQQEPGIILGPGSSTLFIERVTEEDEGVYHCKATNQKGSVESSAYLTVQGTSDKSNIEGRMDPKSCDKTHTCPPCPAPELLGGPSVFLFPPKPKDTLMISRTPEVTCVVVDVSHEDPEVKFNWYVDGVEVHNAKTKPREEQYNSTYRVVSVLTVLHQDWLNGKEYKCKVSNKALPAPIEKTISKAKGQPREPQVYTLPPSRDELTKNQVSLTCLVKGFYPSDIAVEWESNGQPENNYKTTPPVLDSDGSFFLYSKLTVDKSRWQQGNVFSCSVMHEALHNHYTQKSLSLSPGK
Experimental: Elisa test was performed covering a 96-well microplate (BD Biosciences, France, cat n° 353046) surface with 100 µL of 1X PBS, pH 7.4 with Ca^2+ and Mg^2+, (Lonza, France, cat n° 17-513F/12) solution containing 0.2 µg/mL of VEGF-R1 (R&D Systems, UK, cat n° 321-FL-050/CF) or 2 µg/mL of NRP-1 (R&D Systems, UK, cat n° 3870-N1-025). The plate was sealed and incubated overnight at 4°C. After 3 washes with 200 µL of 1X PBS 0.5% (v/v) Tween 20 (Sigma, France, cat n° 34078) (Buffer A), the plate was blocked by adding 200 µL of 1× PBS with 0.5% (w/v) BSA (Eurobio, France, cat n° GAUBSA01-65) and agitated at 37°C for 2 h. […] Luminescence was quantified with an EnVision™ 2101 Multilabel reader (Perkin Elmer, USA) and the data analyzed by Wallac Envision manager software. […] Non-specific binding is defined as the signal measured in the absence of receptor coated on the microplate. The specific binding was calculated as the difference between total binding and non-specific binding. The percentage of inhibition was calculated as following: Inhibition % = 100 × ((Signal measured-non specific binding signal))/((Max binding signal obtained without inhibitor-non specific binding signal without receptor)) [formula]

[5] = system: HUVEC cells; experiment: WST-1 proliferation assay; assay type: cell-based; conditions: in vitro, Figure 1B
Experimental: (§4) After observation of cells under the microscope, old media were removed and the adherent cells washed gently twice with PBS (Phosphate Buffer Saline, -Ca^2+, -Mg^2+, Lonza cat n°: 17-512F/12). All cells were detached with 3 ml of trypsin/EDTA (chelator of calcium and magnesium ions) (Lonza), incubated for 5 min at 37°C, and examined using a microscope to ensure that the cells were detached and floating. Then, 3 ml TNS (Trypsin Neutralizing Solution, Lonza, France, cat n° CC-5002) or of culture medium were added to inactivate the trypsin, and the cell suspension was transferred in a falcon tube and centrifuged for 7 min at 1400 rpm. The supernatant was removed and the cell pellet resuspended in […] of culture medium. 50 µL of this solution were transferred in 20 µL of isotonic solution and the cells were counted by count cellular (Beckman Coulter). […]
(§5) The cell proliferation WST-1 assay is a colorimetric assay for the quantification of cell proliferation and viability, based on the enzymatic cleavage of the tetrazolium salt WST-1 added to the culture medium, to a water soluble colored formazan dye, detected by absorbance at 450 nm, by mitochondrial succinate-tetrazoliumreductase in viable cells. […]

[6] = system: MDA-MB-231; experiment: WST-1 proliferation / cytotoxic test; assay type: cell-based, human; conditions: for IC50: Homo sapiens
Experimental: as §4, §5
After an incubation period of 72 h, at day 4, were prepared the 19 mL medium with reagent WST-1 1mL (10 mL WST-1 in 200 mL well). […] The cells were incubated at 37°C in a humidified atmosphere of 5% CO2 for 1h30 and the absorbance at 450-655 nm was measured by Microplate Manager 5.2 (Bio-Rad).

CCOc1ccccc1NC(=O)c1ccc(C)c(S(=O)(=O)Nc2ccc(C)cc2)c1 [Compound 1, N-(2-ethoxyphenyl)-4-methyl-3-(N-(p-tolyl)sulfamoyl)benzamide]
IC50 [1]: 10000 ± 50 nM
IC50 [2]: 9000 ± 80 nM
IC50 [3]: 800 ± 50 nM
inhibition at 10 µM [4]: 23 ± 2.2%
proliferation of HUVEC cells [5]: inhibited
IC50 ([6]; Breast, MDA-MB-231, wst-1 cytotoxic test, 72 h): 700 ± 80 nM
IC50 ([6]; inhibition of proliferation, clone MDA-MB-231 (Table 2)): 700 ± 50 nM
proliferation of MDA-MB-231 cells ([6]; in vitro, Figure 3B): inhibits
